Experimental data: the supplement of paper PMC12669032

Tests used:
Assay in all cases: growth AUC relative to DMSO control (fraction); higher = more growth (less inhibition)
Conditions in all cases: 24 h
Bacteroides uniformis = tested on: Bacteroides uniformis
Experimental: (§1)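 Validation screen: 11 independently purchased pesticides tested on 8 gut bacterial strains at 2.5–320 µM in mGAM, anaerobic, 37 °C, 24 h. Growth AUC normalised to DMSO controls, mean of 3 independent experiments.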

Clostridium difficile = tested on: Clostridium difficile
Experimental: as §1

Escherichia coli IAI1 = tested on: Escherichia coli IAI1
Experimental: as §1

Eubacterium rectale = tested on: Eubacterium rectale
Experimental: as §1

Lactobacillus gasseri = tested on: Lactobacillus gasseri
Experimental: as §1

[1] = tested on: Parabacteroides distasonis
Experimental: as §1

Roseburia intestinalis = tested on: Roseburia intestinalis
Experimental: as §1

Streptococcus salivarius = tested on: Streptococcus salivarius
Experimental: as §1

CCC(C)[C@H]1O[C@]2(C=C[C@@H]1C)C[C@@H]1C[C@@H](C/C=C(\C)[C@@H](O[C@H]3C[C@H](OC)[C@@H](O[C@H]4C[C@H](OC)[C@@H](O)[C@H](C)O4)[C@H](C)O3)[C@@H](C)/C=C/C=C3\CO[C@@H]4[C@H](O)C(C)=C[C@@H](C(=O)O1)[C@]34O)O2.CO[C@H]1C[C@H](O[C@H]2[C@H](C)O[C@@H](O[C@@H]3/C(C)=C/C[C@@H]4C[C@@H](C[C@]5(C=C[C@H](C)[C@@H](C(C)C)O5)O4)OC(=O)[C@@H]4C=C(C)[C@@H](O)[C@H]5OC/C(=C\C=C\[C@@H]3C)[C@]54O)C[C@@H]2OC)O[C@@H](C)[C@@H]1O (stereo not given in full) [ABAMECTIN]
growth AUC
Conditions | Bacteroides uniformis | Clostridium difficile | Escherichia coli IAI1 | Eubacterium rectale | Lactobacillus gasseri | Roseburia intestinalis | Streptococcus salivarius | [1]
2.5 µM | 0.975 | 1.02 | 1.01 | 1.29 | 1.04 | 0.865 | 1.04 | 0.985
5 µM | 0.996 | 0.979 | 0.978 | 1.17 | 1.07 | 0.871 | 0.973 | 0.918
10 µM | 0.968 | 0.968 | 1.01 | 1.05 | 1.03 | 0.564 | 0.983 | 0.409
20 µM | 0.996 | 0.986 | 0.957 | 0.881 | 0.983 | 0.21 | 0.876 | 0.057
40 µM | 0.974 | 0.966 | 1.01 | 0.774 | 0.952 | 0.121 | 0.894 | 0.0234
80 µM | 0.971 | 0.887 | 1 | 0.892 | 1.02 | 0.102 | 0.887 | 0.0192
160 µM | 0.99 | 0.885 | 0.974 | 0.999 | 0.889 | 0.107 | 1.01 | 0.0484

Cc1cc(C(C#N)c2ccc(Cl)cc2)c(Cl)cc1NC(=O)c1cc(I)cc(I)c1O (stereo not given) [CLOSANTEL]
growth AUC
Conditions | Bacteroides uniformis | Clostridium difficile | Escherichia coli IAI1 | Eubacterium rectale | Lactobacillus gasseri | Roseburia intestinalis | Streptococcus salivarius | [1]
2.5 µM | 1 | 0.0348 | 1.07 | 0.453 | 0.809 | 0.246 | 1.05 | 0.245
5 µM | 0.973 | 0.0106 | 1.04 | 0.242 | 0.827 | 0.149 | 1.04 | 0.00935
10 µM | 0.616 | 0.0157 | 1.03 | 0.0185 | 0.866 | 0.0586 | 1.09 | 0.00581
20 µM | 0.609 | 0.0183 | 0.929 | 0.0129 | 0.848 | 0.0162 | 1.06 | 0.00682
40 µM | 0.573 | 0.00635 | 0.904 | 0.00913 | 0.815 | 0.0268 | 1.04 | 0.0119
80 µM | 0.575 | 0.0171 | 0.886 | 0.0119 | 0.836 | 0.0158 | 1.13 | 0.0133
160 µM | 0.575 | 0.072 | 0.861 | 0.0223 | 0.81 | 0.0258 | 1.06 | 0.0101

CCCCOC(=O)[C@@H](C)Oc1ccc(Oc2ccc(C#N)cc2F)cc1 [CYHALOFOP-BUTYL]
growth AUC
Conditions | Bacteroides uniformis | Clostridium difficile | Escherichia coli IAI1 | Eubacterium rectale | Lactobacillus gasseri | Roseburia intestinalis | Streptococcus salivarius | [1]
2.5 µM | 1.01 | 1.02 | 1.01 | 1.11 | 1.05 | 1.01 | 1.07 | 1.04
5 µM | 0.969 | 0.984 | 0.98 | 1.04 | 0.986 | 0.964 | 1.02 | 0.93
10 µM | 0.994 | 0.98 | 0.975 | 1.05 | 0.986 | 1.02 | 0.957 | 0.859
20 µM | 0.937 | 1.03 | 0.972 | 0.967 | 0.981 | 0.891 | 0.972 | 0.717
40 µM | 0.971 | 1.02 | 0.996 | 1.02 | 0.956 | 0.981 | 0.981 | 0.643
80 µM | 0.99 | 0.992 | 0.979 | 1.13 | 1.01 | 0.976 | 0.999 | 0.684
160 µM | 0.968 | 1.01 | 0.992 | 1.18 | 0.969 | 0.998 | 1.01 | 0.588
320 µM | 0.925 | 0.977 | 1 | 1.28 | 0.975 | 0.918 | 1.1 | 0.437

O=[N+]([O-])c1cc(C(F)(F)F)c(Cl)c([N+](=O)[O-])c1Nc1ncc(C(F)(F)F)cc1Cl [FLUAZINAM]
growth AUC
Conditions | Bacteroides uniformis | Clostridium difficile | Escherichia coli IAI1 | Eubacterium rectale | Lactobacillus gasseri | Roseburia intestinalis | Streptococcus salivarius | [1]
2.5 µM | 1.04 | 0.99 | 1.03 | 1.04 | 1.01 | 1.01 | 1.04 | 0.966
5 µM | 1.02 | 0.995 | 1.01 | 0.887 | 0.968 | 1.08 | 1 | 0.859
10 µM | 0.996 | 0.969 | 1.03 | 0.692 | 0.921 | 0.959 | 0.984 | 0.411
20 µM | 0.807 | 0.909 | 0.912 | 0.227 | 0.844 | 0.879 | 0.815 | 0.0128
40 µM | 0.593 | 0.0127 | 0.934 | 0.0306 | 0.847 | 0.584 | 0.992 | 0.0301

CCCC1COC(Cn2cncn2)(c2ccc(Cl)cc2Cl)O1 (stereo not given) [PROPICONAZOLE]
growth AUC
Conditions | Bacteroides uniformis | Clostridium difficile | Escherichia coli IAI1 | Eubacterium rectale | Lactobacillus gasseri | Roseburia intestinalis | Streptococcus salivarius | [1]
2.5 µM | 1.03 | 0.982 | 1 | 1.19 | 1.03 | 0.971 | 1.1 | 1.12
5 µM | 0.99 | 1.01 | 0.993 | 0.951 | 0.968 | 0.925 | 1.04 | 1
10 µM | 1.02 | 0.967 | 0.971 | 0.703 | 1.02 | 1.01 | 1.06 | 0.988
20 µM | 0.97 | 1.03 | 0.981 | 0.475 | 0.96 | 0.894 | 0.994 | 0.874
40 µM | 0.951 | 0.981 | 0.999 | 0.344 | 0.972 | 0.947 | 1.04 | 0.488
80 µM | 0.915 | 0.979 | 0.975 | 0.0163 | 0.94 | 0.716 | 1.06 | 0.284
160 µM | 0.831 | 0.885 | 0.996 | 0.0214 | 0.851 | 0.202 | 1.03 | 0.0246
320 µM | 0.618 | 0.385 | 0.994 | 0.0204 | 0.832 | 0.0162 | 0.932 | 0.0187
